From patent publication US20240190872A1, “FABI INHIBITORS FOR GRAM-NEGATIVE PATHOGENS” (THE BOARD OF TRUSTEES OF THE UNIVERSITY OF ILLINOIS, priority 2021, published 2024)
Converted amounts (≈) assume the structure as drawn. Where two headings read alike, the source gives them in different places.

Assays:
E. coli ΔtolC (JW5503) = assay type: cell-based
Summary of the method: (§1)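 MICs by CLSI broth microdilution in cation-adjusted Mueller-Hinton broth, performed in biological triplicate. Strains: efflux-deficient E. coli ΔtolC (JW5503, KEIO collection) and K. pneumoniae BAA-2472 (ATCC).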

E. coli ATCC 25922 = assay: MIC; assay type: cell-based; conditions: Escherichia coli, ATCC25922; line under drawing, Table 8-1
S. aureus ATCC 29213 = assay: Antimicrobial susceptibility test (MIC), micro-dilution broth; assay type: cell-based; conditions: Staphylococcus aureus, ATCC29213
Summary of the method: (§2)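 CLSI micro-dilution broth method in cation-adjusted Mueller-Hinton broth, in biological triplicate; human serum (pooled, filtered) was also used.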

H. sapiens A549 = assay: In-vitro cytotoxicity; assay type: cell-based
H. sapiens HFF-1 = assay: In-vitro cytotoxicity; assay type: cell-based
in vitro [1] = conditions: human, plasma
in vitro [2] = conditions: mouse, plasma
A. baumannii AR 0273 = assay: microbe, parasite or virus in culture; assay type: cell-based; conditions: Acinetobacter baumannii, AR0273, read-out: MIC A. baumannii AR 0273
Summary of the method: (§3)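 CLSI micro-dilution broth method; cation-adjusted MHB; biological triplicate.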

E. coli AR 0085 = assay: microbe, parasite or virus in culture; assay type: cell-based; conditions: Escherichia coli, AR0085, read-out: MIC E. coli AR 0085
Summary of the method: as §3

A. baumannii AR 0313 = assay: microbe, parasite or virus in culture; assay type: cell-based; conditions: Acinetobacter baumannii, AR0313, read-out: MIC A. baumannii AR 0313
Summary of the method: as §3

K. pneumoniae AR 0560 = assay: microbe, parasite or virus in culture; assay type: cell-based; conditions: Klebsiella pneumoniae, AR0560, read-out: MIC K. pneumoniae AR 0560
Summary of the method: as §3

E. coli AR 0048 = assay: microbe, parasite or virus in culture; assay type: cell-based; conditions: Escherichia coli, AR0048, read-out: MIC E. coli AR 0048
Summary of the method: as §3

A. baumannii AR 0299 = assay: microbe, parasite or virus in culture; assay type: cell-based; conditions: Acinetobacter baumannii, AR0299, read-out: MIC A. baumannii AR 0299
Summary of the method: as §3

A. baumannii AR 0033 = assay: microbe, parasite or virus in culture; assay type: cell-based; conditions: Acinetobacter baumannii, AR0033, read-out: MIC A. baumannii AR 0033
Summary of the method: as §3

K. pneumoniae AR 0066 = assay: microbe, parasite or virus in culture; assay type: cell-based; conditions: Klebsiella pneumoniae, AR0066, read-out: MIC K. pneumoniae AR 0066
Summary of the method: as §3

K. pneumoniae AR 0113 = assay: microbe, parasite or virus in culture; assay type: cell-based; conditions: Klebsiella pneumoniae, AR0113, read-out: MIC K. pneumoniae AR 0113
Summary of the method: as §3

K. pneumoniae BAA 2472 = assay: microbe, parasite or virus in culture; assay type: cell-based; conditions: Klebsiella pneumoniae, BAA2472, read-out: MIC K. pneumoniae BAA 2472
Summary of the method: as §1

E. coli MG1655 = assay: Antimicrobial susceptibility test (MIC); assay type: cell-based; conditions: Escherichia coli, MG1655
Summary of the method: as §2

HERG = HERG (Homo sapiens (Human), UniProt Q12809); assay: cell-based
A. baumannii FabI = A. baumannii FabI (Acinetobacter baumannii, UniProt D0CAD5); assay: biochemical; conditions: purified FabI, apparent inhibition constant; read-out: A. baumannii FabI Ki^app
Experimental: Mode of Action. To probe the effects of varying ring systems and amine placement on FabI target engagement, the apparent inhibition constants (Ki^app) for select compounds were determined using purified FabI. The goal of these studies was two-fold, to comparatively assess fabimycin, Debio-1452-NH3, and Debio-1452, and to also assess differential activity against the E. coli and A. baumannii versions of FabI. FabI from E. coli and A. baumannii were recombinantly expressed and purified, and the ability for each compound to inhibit the activity of these enzymes was evaluated using a standard FabI enzyme assay.
In vitro FabI inhibition assay. NADH (Sigma-Aldrich, Cat# N8129) and crotonoyl-CoA (Sigma-Aldrich, Cat# 28007) were both diluted into activity buffer [100 mM potassium glutamate (pH 7.8)], and working solution was dispensed into two columns of round-bottom 96-well plate (330 μL per well). Inhibitors, dissolved in DMSO at 200× final concentration, were added to each well via multichannel pipette (2.48 μL per well). After thorough mixing, this mixture was transferred to UV-transparent plate (UV-STAR half-area 96-well plate, Greiner Bio-One, Cat#675801, 100 μL per well, three technical replicates per inhibitor concentration). Plate was placed in plate-reader (SpectraMax 190, Molecular Devices) under temperature control (25° C.), and temperature was allowed to equilibrate. Fresh aliquot of enzyme from −80° C. was thawed on ice and diluted in activity buffer. Enzyme working solution was added to plate (50 μL per well, 20 nM enzyme final). After shaking for 5 s, reaction progress was monitored by absorbance at 340 nm every 15 s for 90 min. Linear portion of reaction progress curve was fit using plate-reader software (SoftMax Pro 7.0). Percent activity was calculated relative to DMSO-only and no-enzyme controls in each plate. Percent activity curves were fit to Morrison's quadratic using Graphpad Prism 6.0 to obtain apparent Ki.

A. baumannii FabI, sequence (D0CAD5 1-288): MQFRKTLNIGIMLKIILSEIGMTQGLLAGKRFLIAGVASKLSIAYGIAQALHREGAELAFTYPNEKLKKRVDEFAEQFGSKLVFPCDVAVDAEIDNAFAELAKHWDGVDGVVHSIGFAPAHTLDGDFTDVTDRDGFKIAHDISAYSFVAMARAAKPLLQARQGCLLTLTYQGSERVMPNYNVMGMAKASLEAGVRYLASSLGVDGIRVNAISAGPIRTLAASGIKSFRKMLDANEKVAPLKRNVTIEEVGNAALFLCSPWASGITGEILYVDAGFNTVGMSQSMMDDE
HERG, sequence (Q12809 whole entry): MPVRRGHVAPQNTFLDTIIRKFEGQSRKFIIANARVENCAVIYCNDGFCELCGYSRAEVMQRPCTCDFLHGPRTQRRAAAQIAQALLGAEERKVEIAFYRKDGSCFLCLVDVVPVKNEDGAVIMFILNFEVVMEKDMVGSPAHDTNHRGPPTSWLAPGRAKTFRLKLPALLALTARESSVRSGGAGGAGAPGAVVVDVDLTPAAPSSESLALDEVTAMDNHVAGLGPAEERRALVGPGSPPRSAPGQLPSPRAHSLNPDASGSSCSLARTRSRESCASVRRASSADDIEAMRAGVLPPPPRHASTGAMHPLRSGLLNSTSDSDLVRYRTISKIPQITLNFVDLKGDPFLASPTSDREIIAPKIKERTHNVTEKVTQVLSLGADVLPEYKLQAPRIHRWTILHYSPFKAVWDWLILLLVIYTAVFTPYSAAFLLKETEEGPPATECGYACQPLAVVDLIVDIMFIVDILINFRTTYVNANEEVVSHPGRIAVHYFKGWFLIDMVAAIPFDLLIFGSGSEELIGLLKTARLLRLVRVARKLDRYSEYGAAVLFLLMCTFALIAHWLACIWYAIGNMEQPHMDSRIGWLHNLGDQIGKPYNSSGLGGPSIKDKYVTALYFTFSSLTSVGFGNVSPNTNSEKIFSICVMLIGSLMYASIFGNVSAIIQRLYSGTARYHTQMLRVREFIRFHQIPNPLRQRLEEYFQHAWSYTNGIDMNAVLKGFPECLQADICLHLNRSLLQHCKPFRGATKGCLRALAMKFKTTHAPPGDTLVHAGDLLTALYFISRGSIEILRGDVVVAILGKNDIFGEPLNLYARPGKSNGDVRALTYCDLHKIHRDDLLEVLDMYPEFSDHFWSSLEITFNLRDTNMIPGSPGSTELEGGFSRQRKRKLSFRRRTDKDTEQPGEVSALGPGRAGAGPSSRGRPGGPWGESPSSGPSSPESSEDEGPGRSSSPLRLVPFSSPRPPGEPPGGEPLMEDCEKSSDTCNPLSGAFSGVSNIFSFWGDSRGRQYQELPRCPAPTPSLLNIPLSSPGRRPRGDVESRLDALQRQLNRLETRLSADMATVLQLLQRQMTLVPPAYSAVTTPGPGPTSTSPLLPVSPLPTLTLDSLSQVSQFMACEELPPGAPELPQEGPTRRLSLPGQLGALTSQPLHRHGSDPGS

In the case of O=C1CCc2cc(/C=C/C(=O)N3CC4C=C(c5ccccc5)CC4C3)cnc2N1 (stereo not drawn) [reference compound], the “MIC E. coli ΔtolC mutant” value (E. coli ΔtolC (JW5503); line under drawing, Table 8-1) is reported as “MIC E. coli ΔtolC mutant = ≤0.03 ug/mL”, the MIC (E. coli ATCC 25922) is reported as greater than 32 µg/mL and the MIC (S. aureus ATCC 29213; line under drawing, Table 8-1, read-out: MIC S. aureus ATCC 29213) is reported as 0.016 µg/mL (≈ 0.0415 µM).
In the case of Cc1c(CN(C)C(=O)/C=C/c2cnc3c(c2)CCC(=O)N3)oc2ccccc12 [Debio-1452, (E)-N-methyl-N-((3-methylbenzofuran-2-yl)methyl)-3-(7-oxo-5,6,7,8-tetrahydro-1,8-naphthyridin-3-yl)acrylamide, reference compound], the “MIC E. coli ΔtolC” value (E. coli ΔtolC (JW5503); efflux deficient E. coli ΔtolC) is reported as 0.062 µg/mL (≈ 0.165 µM), the inhibition at 30 µM (H. sapiens A549) is reported as 13 ± 6% and the IC50 (H. sapiens A549; cytotoxicity) is reported as 166 ± 12 µM. For the same molecule, the inhibition at 30 µM (H. sapiens HFF-1) was 18 ± 6%, the IC50 (H. sapiens HFF-1; cytotoxicity) was 165 ± 42 µM and the fraction unbound (in vitro [1]) was 0.019. It also gave a fraction unbound (in vitro [2]) of 0.006, an MIC (A. baumannii AR 0273) greater than 32 µg/mL and an MIC (E. coli AR 0085) greater than 32 µg/mL. For the same molecule, the MIC (A. baumannii AR 0313) was greater than 32 µg/mL, the MIC (K. pneumoniae AR 0560) was greater than 32 µg/mL and the MIC (E. coli AR 0048) was greater than 32 µg/mL. It also gave an MIC (A. baumannii AR 0299) greater than 32 µg/mL, an MIC (A. baumannii AR 0033) greater than 32 µg/mL and an MIC (K. pneumoniae AR 0066) greater than 32 µg/mL. For the same molecule, the MIC (K. pneumoniae AR 0113) was greater than 32 µg/mL, the MIC (K. pneumoniae BAA 2472) was greater than 32 µg/mL and the MIC (E. coli MG1655) was greater than 32 µg/mL. It also gave an IC50 (HERG) of 5.5 µM, a Ki (A. baumannii FabI) of 0.799 ± 0.229 µM and an MIC (S. aureus ATCC 29213; S. aureus ATCC 29213, read-out: MIC S. aureus 29213) of 0.008 µg/mL (≈ 0.0213 µM).
